Test results from patent US10118944B2, “Cell penetrating peptides for intracellular delivery of molecules” (AADIGEN, LLC, priority 2012, dated 2018).

Columns and labels:
MCF7 [1] = experiment: VEPEP-5 mediated delivery of small hydrophobic molecules, inhibition of proliferation; assay type: cell-based; conditions: Homo sapiens, free drug without carrier
Source text: (§1) VEPEP-5 peptides (Short-6, Short-7 and Short 11) have been used for the delivery of different small hydrophobic molecules including doxorubicin and porphyrin on different cell lines including primary cell lines and challenging cell lines. VEPEP-5 peptides form stable particles with small aromatic molecules (table 2). Effect of VEPEP-5 mediated delivery of doxorubicin and porphyrin have been investigated on cancer cell viability. […] The impact of carrier peptides to improve cellular uptake of small molecule drugs was estimated by following inhibition of proliferation of cancer cells.

Hela [2] = experiment: as above; assay type: cell-based; conditions: Homo sapiens, free drug without carrier
Source text: as §1

MCF7 [3] = experiment: VEPEP-5 mediated delivery of C4 peptide (targeting cdk2/cyclin A), cell proliferation; assay type: cell-based, Human; conditions: VEPEP-5 (Short-6, Short-7 and Short 11) mediated delivery
Method: (§2) Adherent HS68 fibroblasts, HeLa, PC3, Jurkat, CEM-SS and U2OS MCF-7 cell lines (from American Type Culture Collection (ATCC)), as well as MEF and PBMC were cultured in Dulbecco's Modified Eagle's Medium supplemented with 2 mM glutamine, 1% antibiotics (streptomycin 10,000 μg/ml, penicillin, 10,000 IU/ml) and 10% (w/v) foetal calf serum (FCS), at 37° C. in a humidified atmosphere containing 5% CO2. Stock solutions of VEPEP-5/peptide particles were prepared by complexing 1 μM peptide with VEPEP-5 peptides at a molar ratio of 1/20 for 30 min at 37° C. Lower concentrations of VEPEP-5-carrier/peptide (from 500 nM to 1 μM) were obtained by serial dilution of the stock complexes in PBS, in order to preserve the same VEPEP-5-carrier/peptide ratio. 150 000 cells seeded in a 35 mm dish the day prior transfection, were grown to 60% confluence and overlaid with 200 μl of preformed complexes, incubated for 3-5 min, then 400 μl of DMEM were added. After 30 min. incubation at 37° C., 1 ml of fresh DMEM containing 16% foetal calf serum (FCS) was added in order to reach a final FCS concentration of 10%, without removing the overlay of VEPEP-5/peptide complexes. Cells were returned to the incubator for 24 hrs. For CDK2 derived peptides cell proliferation was monitored after 24 and 48 hrs. Data reported are an average of 3 or 4 distinct experiments. […]

Hela [4] = experiment: as above; assay type: cell-based, Human; conditions: VEPEP-5 (Short-6, Short-7 and Short 11) mediated delivery
Method: as §2

Cyclin B1 protein level = experiment: VEPEP-5 mediated delivery of PNA antisense, Cyclin B1 knockdown; assay type: cell-based, Human; conditions: controls: free PNA; scrambled PNA complexed with Short-6 and Short-11
Source text: VEPEP-5 (Short-6, Short-7 and Short 11) peptides have been used for the delivery of nucleic acid analog (PNA and morpholino) into different cell lines, including primary cell lines and challenging cell lines. Uptake was monitored by following biological response (Cyclin B1 knockdown). We then have applied Short-6, Short-7 and Short 11 for the delivery of PNA antisense targeting Cyclin B1 as previously described by Morris et al..

[5] = Fluorescence titration, VEPEP-5/SHM binding: FAM-guanosine; conditions: cargo FAM-guanosine
Method: (§3) Fluorescence experiments were performed on a PTI spectrofluorimeter at 25° C. in a NaCl 154 mM buffer. Intrinsic Trp-fluorescence of VEPEP-5 was excited at 290 nm and emission spectrum was recorded between 310 and 400 nm, with a spectral band-pass of 2 and 8 nm for excitation and emission, respectively. FITC-fluorescence of labelled-peptide was excited at 492 nm and emission recorded between 500 and 580 nm. For […]/peptide interaction, 0.5 μM of FITC-labelled peptide was titrated by increasing concentrations of VEPEP-5. All measurements were corrected for the dilution and curve fitting were performed by using Grafit software (Erithacus).
(§4) VEPEP-5 peptides also form stable particles with small aromatic molecules including doxorubicin, porphyrin and charges molecules including nucleotide, nucleoside and peptide-analog of nucleic acids or fluorescent dyes (FIG. 1). The dissociation constant for small hydrophobic molecule ranges between 0.05 to 0.1 μM, depending on the nature of the dyes and of the peptides (Table 2).

HeLa and U2OS cells = experiment: Toxicity of VEPEP-5 particles by MTT assay; assay type: cell-based, Human
Method: Cytotoxic response was measured 24 hr later by colorimetric MTT assay (Sigma, Germany), respectively. […] Results correspond to the average of 3 separate experiments.

MEF [6] = experiment: VEPEP-5 mediated delivery of fluorescent labelled peptide (microscopy/FACS); assay type: cell-based, Mouse; conditions: % of the cells
Method: (§5) Adherent HS68 fibroblasts, HeLa, PC3, Jurkat, CEM-SS and U2OS MCF-7 cell lines (from American Type Culture Collection (ATCC)), as well as MEF and PBMC were cultured in Dulbecco's Modified Eagle's Medium supplemented with 2 mM glutamine, 1% antibiotics (streptomycin 10,000 μg/ml, penicillin, 10,000 IU/ml) and 10% (w/v) foetal calf serum (FCS), at 37° C. in a humidified atmosphere containing 5% CO2. Stock solutions of VEPEP-5/peptide particles were prepared by complexing 1 μM peptide with VEPEP-5 peptides at a molar ratio of 1/20 for 30 min at 37° C. Lower concentrations of VEPEP-5-carrier/peptide (from 500 nM to 1 μM) were obtained by serial dilution of the stock complexes in PBS, in order to preserve the same VEPEP-5-carrier/peptide ratio. 150 000 cells seeded in a 35 mm dish the day prior transfection, were grown to 60% confluence and overlaid with 200 μl of preformed complexes, incubated for 3-5 min, then 400 μl of DMEM were added. After 30 min. incubation at 37° C., 1 ml of fresh DMEM containing 16% foetal calf serum (FCS) was added in order to reach a final FCS concentration of 10%, without removing the overlay of VEPEP-5/peptide complexes. Cells were returned to the incubator for 24 hrs. For CDK2 derived peptides cell proliferation was monitored after 24 and 48 hrs. Data reported are an average of 3 or 4 distinct experiments.
(§6) VEPEP-5 peptides (Short-6, Short-7 and Short 11) have been used for the delivery of different peptides into different cell lines, including primary cell lines, stem cell lines and challenging cell lines. Peptide delivery was monitored using three approaches, fluorescence spectroscopy and monitoring biological responses (anti proliferation)
(§7) 1—Fluorescent labelled peptide was visualized in the different cell lines using fluorescence microscopy or FACS sorting (Table 3). In most of the cell lines, the uptake of Cy-5 labelled peptides is more than 70% of the cells

[7] = Fluorescence titration, VEPEP-5/SHM binding: doxorubicin; conditions: cargo Doxorubicin
Method: as §3, §4

MEF [8] = experiment: VEPEP-5 mediated delivery of proteins (fluorescence/FACS); assay type: cell-based, Mouse; conditions: % of the cells
Method: as §5
(§8) VEPEP-5 have been used for the delivery of different proteins into different cell lines, including primary cell lines, stem cell lines and challenging cell lines. Protein uptake was monitored using fluorescence spectroscopy and FACS analysis. GFP/RFP or Fluorescent labelled proteins were visualized in the different cell lines using fluorescence microscopy or FACS sorting (Table 5). In most of the cell lines, the uptake of RFP; GFP, Cy-5 labelled proteins is more than 50% of the cells.

[9] = Fluorescence titration, VEPEP-5/SHM binding: porphyrin; conditions: cargo porphyrin
Method: as §3, §4

U2OS [10] = experiment: VEPEP-5 mediated delivery of fluorescent labelled peptide (microscopy/FACS); assay type: cell-based, Human; conditions: % of the cells
Method: as §5, §6, §7

MCF7 [11] = experiment: as above; assay type: cell-based, Human; conditions: MCF7, % of the cells
Method: as §5, §6, §7

HS-68 [12] = experiment: as above; assay type: cell-based, Human; conditions: HS-68, % of the cells
Method: as §5, §6, §7

PBMC = experiment: as above; assay type: cell-based, Human; conditions: % of the cells
Method: as §5, §6, §7

Hela [13] = experiment: as above; assay type: cell-based, Human; conditions: % of the cells
Method: as §5, §6, §7

CEM-SS [14] = experiment: as above; assay type: cell-based, Human; conditions: % of the cells
Method: as §5, §6, §7

U2OS [15] = experiment: VEPEP-5 mediated delivery of proteins (fluorescence/FACS); assay type: cell-based, Human; conditions: % of the cells
Method: as §5, §8

MCF7 [16] = experiment: as above; assay type: cell-based, Human; conditions: MCF7, % of the cells
Method: as §5, §8

HS-68 [17] = experiment: as above; assay type: cell-based, Human; conditions: HS-68, % of the cells
Method: as §5, §8

Jurkat = experiment: as above; assay type: cell-based, Human; conditions: % of the cells
Method: as §5, §8

Hela [18] = experiment: as above; assay type: cell-based, Human; conditions: % of the cells
Method: as §5, §8

CEM-SS [19] = experiment: as above; assay type: cell-based, Human; conditions: % of the cells
Method: as §5, §8

Compound | Binding, FAM-guanosine [5] | toxicity (MTT) (HeLa and U2OS cells; levels up to 200 nM) | toxicity (MTT) (HeLa and U2OS cells; maximum concentration of 1 μM) | Efficiency (uptake of fluorescent labelled peptide) (MEF [6]) [%] | Binding, Doxorubicin [7] | uptake of RFP; GFP, Cy-5 labelled proteins (MEF [8]) [%] | Binding, porphyrin [9] | Kd [9] [nM] | Efficiency (uptake of fluorescent labelled peptide) (U2OS [10]) [%] | Efficiency (uptake of fluorescent labelled peptide) (MCF7 [11]) [%] | Efficiency (uptake of fluorescent labelled peptide) (HS-68 [12]) [%] | Efficiency (uptake of fluorescent labelled peptide) (PBMC) [%] | Efficiency (uptake of fluorescent labelled peptide) (Hela [13]) [%] | Efficiency (uptake of fluorescent labelled peptide) (CEM-SS [14]) [%] | uptake of RFP; GFP, Cy-5 labelled proteins (U2OS [15]) [%] | uptake of RFP; GFP, Cy-5 labelled proteins (MCF7 [16]) [%] | uptake of RFP; GFP, Cy-5 labelled proteins (HS-68 [17]) [%] | uptake of RFP; GFP, Cy-5 labelled proteins (Jurkat) [%] | uptake of RFP; GFP, Cy-5 labelled proteins (Hela [18]) [%] | uptake of RFP; GFP, Cy-5 labelled proteins (CEM-SS [19]) [%] | also measured
C1=Cc2cc3ccc(cc4nc(cc5ccc(cc1n2)[nH]5)C=C4)[nH]3 [Porphyrin, porphyrin] |  |  |  |  |  |  |  |  |  |  |  |  |  |  |  |  |  |  |  |  | IC50 (MCF7 [1]): 17000 nM; IC50 (Hela [2]): 25000 nM
KKQVRMAHLVLT (synthesized peptide C4) [Short C4] |  |  |  |  |  |  |  |  |  |  |  |  |  |  |  |  |  |  |  |  | peptide C4 concentration sufficient to block proliferation (MCF7 [3]): 100 nM; peptide C4 concentration sufficient to block proliferation (Hela [4]): 100 nM
TGC CAT CAA GCT TAG AGG-^CY5 (antisense TGCCATCAAGCTTAGAGG; all peptide nucleic acid (PNA); further chemistry not fully specified) [free PNA, PNA antisense targeting Cyclin B1, without carrier] |  |  |  |  |  |  |  |  |  |  |  |  |  |  |  |  |  |  |  |  | change in Cyclin B1 level (Cyclin B1 protein level): no change
X1RSWFRLWFR [Short 11, X1 is beta-A or S; N-terminus acetylated, C-terminal cysteamide] | yes | No toxicity | mild toxicity | 70 | yes | 60 | yes | 700 | 55 | 58 | 80 | 78 | 69 | 70 | 71 | 62 | 70 | 78 | 60 | 65 | 
X1WFRLWFRLR [Short 7, X1 is beta-A or S; N-terminus acetylated, C-terminal cysteamide] | yes | No toxicity | mild toxicity | 71 | yes | 65 | yes | 500 | 71 | 75 | 78 | 80 | 70 | 75 | 80 | 75 | 80 | 70 | 80 | 60 | Kd [7]: 70 nM
X1WWRLWWRLR [Short 6, X1 is beta-A or S; N-terminus acetylated, C-terminal cysteamide] | yes | No toxicity | mild toxicity | 64 | yes | 65 | yes | 400 | 68 | 59 | 89 | 78 | 45 | 74 | 64 | 70 | 78 | 60 | 55 | 55 | Kd [5]: 60 nM
